Target: T1, INDY (Homo sapiens, UniProt Q86YT5)
Experiment: 14C-citrate uptake in HepG2 cells endogenously expressing INDY (NaCT)
Assay type: cell-based
Conditions: endogenous INDY
Protocol: (§1) The compound was obtained by screening of a library containing more than 50,000 lead-like compounds and fragments. The library was tested using a functional citrate uptake assay with HEK293 cells overexpressing recombinant human INDY. The following hit confirmation was conducted in the same assay system. To confirm the activity of selected compounds on the target INDY another cell assay was conducted. In this assay system citrate uptake was measured using HepG2 cells which endogenously express INDY. Furthermore selectivity of selected compounds was tested for two other transporters in different assay systems. The first transporter was the glutamate transporter GLT-1 tested in a glutamate uptake assays using HEK293 cells overexpressing recombinant human GLT-1. The second transporter was the glucose transporter GLUT1 tested in a glucose uptake assay using Huh-7 cells which endogenously express GLUT1. Compounds were considered to be selective with an at least 5-fold higher activity for INDY than for the other two transporters.
(§2) Cells were maintained in cell medium using cell culture grade flasks (CellSTACK Corning, 500 cm2 dishes or T175 depending on cell number). The selection antibiotic and G418 (800 μg/ml) was added during cultivation but not for seeding into assay plates. For splitting, cells were washed with PBS (w/o Ca2+, Mg2+, phenol red) and detached with Trypsin/EDTA. Throughout cultivation cells were kept sub-confluent. Detached cells (50,000 cells/well) were seeded in 96-well plates (white, clear bottom from Corning #655098) and incubated over night before usage in the assay. The following media were used. For HEK293 cells expressing INDY MEM (PAA)+10% FCS+1×P/S+2 mM L-Gln; for HEK293 cells expressing GLT-1 DMEM (Gibco)+10% FCS+400 µg/ml G418; for Huh7 cells DMEM (Gibco)+10% FCS+2 mM L-Gin (+1×P/S); for HepG2 cells MEM (PAA, Cat # E15-024)+10% FCS+2 mM L-Gin+1×NEAA+1 mM Na-Pyruvat
(§3) The following assay buffers for the particular uptake reaction were used. Citrate uptake buffer: 120 mM NaCl, 5.4 mM KCl, 0.8 mM MgSO4, 5 mM glucose, 1.8 mM CaCl2, 25 mM Hepes, 25 mM MES, pH 6.5. Glutamate uptake buffer: HBSS, 1 mM CaCl2, 1 mM MgCl2, 20 mM Hepes pH 7.4. Glucose uptake buffer: 25 mM Hepes+25 mM MES pH 7.4, 120 mM NaCl, 5.4 mM KCl, 1.8 mM CaCl2, 0.8 mM MgSO4.
INDY mediated citrate uptake was also determined in HepG2 cells. To determine the uptake of ^14C labelled citrate into cells, HepG2 cells endogenously expressing human NaCT were used. (Gopal et al. 2007 Am J Physiol Gastrointest Liver Physiol 292).
HepG2 cells were seeded into white clear-bottom 96-well plates (50,000/well) coated with collagen and incubated at 37° C. for 16-24 hours. After that plates were washed once with assay buffer using automated washing/LS 405 Selectors, BioTek ending with a buffer volume of 40 μl. Then 5 μl of compound solution in assay buffer was added and incubated for 5 min at 37° C. in cell incubator, HERA cell Heraeus. Afterwards 10 μl of substrate 14C-citrate (10 nM) were added and incubated for another 90 min at 37° C. in cell incubator, HERAcell. Then plates were washed 3× with 200 μl buffer and […] cell lysis induced by adding 50 μl ice-cold NaOH (100 mM). Plates were incubated for 25 min at RT on a plate shaker and afterwards 200 μl scintillation fluid was added and incubated for 15 min on a plate shaker at RT and for another 15 min without shaking at RT. Plates were measured using a TopCount system. As a positive control 5 mM citrate was applied. It is possible to use this assay also in analogy in a 384-well plate format.

T1 sequence (Q86YT5 whole entry): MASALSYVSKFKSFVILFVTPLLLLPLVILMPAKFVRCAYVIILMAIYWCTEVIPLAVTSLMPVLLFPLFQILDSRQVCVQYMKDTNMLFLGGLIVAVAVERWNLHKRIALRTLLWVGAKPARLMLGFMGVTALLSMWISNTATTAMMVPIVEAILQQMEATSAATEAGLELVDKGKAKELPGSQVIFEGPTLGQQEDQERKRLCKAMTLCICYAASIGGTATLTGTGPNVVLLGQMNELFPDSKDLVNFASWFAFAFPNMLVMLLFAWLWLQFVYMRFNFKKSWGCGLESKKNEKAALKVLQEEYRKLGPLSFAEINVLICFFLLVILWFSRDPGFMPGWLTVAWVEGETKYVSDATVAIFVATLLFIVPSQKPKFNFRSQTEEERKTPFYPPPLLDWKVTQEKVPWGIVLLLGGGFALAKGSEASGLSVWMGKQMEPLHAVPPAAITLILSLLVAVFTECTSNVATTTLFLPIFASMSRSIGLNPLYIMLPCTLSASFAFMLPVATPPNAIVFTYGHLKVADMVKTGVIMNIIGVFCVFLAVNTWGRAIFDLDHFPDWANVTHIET

O=C(NCc1ccccc1F)N1CCN(S(=O)(=O)/C=C/c2ccccc2)CC1 [Example 7, N-[(2-fluorophenyl)methyl]-4-[(E)-2-phenylethenesulfonyl]piperazine-1-carboxamide] and O=S(=O)(/C=C/c1ccccc1)N1CCC(CNCc2ccccc2F)CC1 [Example 10, [(2-fluorophenyl)methyl]({1-[(E)-phenylethenesulfonyl]piperidin-4-yl}methyl)amine] cannot be ordered by IC50: > 50 µM for the first, > 50 µM for the second.

First: O=C(NCc1ccccn1)C1CCN(S(=O)(=O)/C=C/c2ccccc2)CC1 [Example 3, 1-[(E)-2-phenylethenesulfonyl]-N-(pyridin-2-ylmethyl)piperidine-4-carboxamide]
Second: O=C(NCc1ccccc1F)C1CCN(S(=O)(=O)C2=Cc3ccccc3OC2)CC1 [Example 9, 1-(2H-chromene-3-sulfonyl)-N-[(2-fluorophenyl)methyl]piperidine-4-carboxamide]
The IC50 of the first is lower: 11.3 µM for the first, > 50 µM for the second.

COc1ccc(S(=O)(=O)N2CCC(C(=O)NCc3ccccc3F)CC2)cc1 [Example 4, N-[(2-fluorophenyl)methyl]-1-(4-methoxybenzenesulfonyl) piperidine-4-carboxamide] showed an IC50 of 5.7 µM.

Target: T1, INDY
Experiment: 14C-citrate uptake in HEK293 cells overexpressing recombinant human INDY (NaCT)
Assay type: cell-based
Parameters: expressed in transfected cells; host or cells: HEK293
Conditions: not given
Protocol: as §1, §2, §3
INDY mediated citrate uptake was determined in HEK293 cells. To determine the uptake of ^14C labelled citrate into cells, HEK293 cells over-expressing human NaCT were used. Cloning of human NaCT was done in analogy as described in Birkenfeld et al. (Birkenfeld et al., 2011, Cell Metabolism 14, 184-195, 2011).
Human NaCT HEK293 cells were seeded into white clear-bottom 96-well plates (50,000/well) in the presence of 4 μg/ml Poly-D-Lysine and incubated at 37° C. for 16-24 hours. On the days of the assay the plates were washed once with assay buffer using automated washing/LS 405 Selectors, BioTek ending with a buffer volume of 40 μl. Then 5 μl of compound solution in assay buffer was added and incubated for 5-30 min at 37° C. in cell incubator, HERA cell Heraeus. Afterwards 10 μl of substrate 14C-citrate ([…]/[…] per well) were added and incubated for another 20-90 min at 37° C. in cell incubator, HERAcell. Then plates were washed twice with 200 μl ice-cold assay buffer and residual volume was discarded. For cell lysis 50 μl ice-cold NaOH (100 mM) was added and incubated for 15 minutes at RT on a plate shaker. Finally, 200 μl scintillation fluid (scintillator OptiPhase Supermix, Perkin Elmer) was added. After 15 min incubation at RT without shaking, plates were measured using a TopCount reader system (Perkin Elmer). As a positive control 10 mM citrate was applied. It is possible to use this assay also in analogy in a 384-well plate format.

N#Cc1ccc(S(=O)(=O)N2CCC(C(=O)NCc3ccccc3F)CC2)cc1 [Example 13, 1-(4-cyanobenzenesulfonyl)-N-[(2-fluorophenyl)methyl]piperidine-4-carboxamide] and O=C(NCc1ccccc1F)C1CCN(S(=O)(=O)c2ccc(O)cc2)CC1 [Example 72, N-[(2-fluorophenyl)methyl]-1-(4-hydroxybenzenesulfonyl)pipendine-4-carboxamide] cannot be ordered by IC50: 20.6 µM for the first, > 20 µM for the second.

NCc1ccccc1CNC(=O)C1CCN(S(=O)(=O)c2cc(Cl)cc(Cl)c2)CC1 [Example 98, N-([2-(aminomethyl)phenyl]methyl)-1-(3,5-dichlorobenzenesulfonyl)piperidine-4-carboxamide] and NC(=O)c1ccccc1CNC(=O)C1CCN(S(=O)(=O)c2cc(Cl)cc(Cl)c2)CC1 [Example 80, N-[(2-carbamoylphenyl)methyl]-1-(3,5-dichlorobenzenesulfonyl)pipendine-4-carboxamide] cannot be ordered by IC50: > 20 µM for the first, > 20 µM for the second.

Going from O=C(NCc1ccccn1)C1CCN(S(=O)(=O)c2cccc(OC(F)(F)F)c2)CC1 [Example 93, N-[(pyridin-2-yl)methyl]-1-[3-(trifluoromethoxy)benzenesulfonyl]piperidine-4-carboxamide] to O=C(NCc1ccccn1)C1CCN(S(=O)(=O)c2cccc([N+](=O)[O-])c2)CC1 [Example 76, 1-(3-nitrobenzenesulfonyl)-N-[(pyridin-2-yl)methyl]pipendine-4-carboxamide], the IC50 rises from 16.4 µM to > 20 µM. The first is the more potent here.

O=C(NCc1ccccn1)C1CCN(S(=O)(=O)c2ccc(N3CCCC3)cc2)CC1 [Example 70, N-[(pyridin-2-yl)methyl]-1-[4-(pyrrolidin-1-yl)benzenesulfonyl]pipendine-4-carboxamide] and CN(C)c1ccc(S(=O)(=O)N2CCC(C(=O)NCc3ccccn3)CC2)cc1 [Example 64, 1-[4-(dimethylamino)benzenesulfonyl]-N-[(pyridin-2-yl)methyl]piperidine-4-carboxamide] cannot be ordered by IC50: > 20 µM for the first, > 20 µM for the second.

First: O=C(NCc1ccc2[nH]cnc2c1)C1CCN(S(=O)(=O)/C=C/c2ccccc2)CC1 [Example 14, N-[(1H-1,3-benzodiazol-5-yl)methyl]-1-[(E)-2-phenylethenesulfonyl]piperidine-4-carboxamide]
Second: Cc1ccccc1CNC(=O)C1CCN(S(=O)(=O)/C=C/c2ccccc2)CC1 [Example 31, N-[(2-methylphenyl)methyl]-1-[(E)-2-phenylethenesulfonyl]piperidine-4-carboxamide]
The IC50 of the first is higher: > 20 µM for the first, 15.2 µM for the second.

First: COC(=O)c1ccccc1CNC(=O)C1CCN(S(=O)(=O)/C=C/c2ccccc2)CC1 [Example 66, methyl 2-[({1-[(E)-2-phenylethenesulfonyl]piperidin-4-yl}formamido)methyl]benzoate]
Second: CC(C)Oc1ccccc1CNC(=O)C1CCN(S(=O)(=O)/C=C/c2ccccc2)CC1 [Example 54, 1-[(E)-2-phenylethenesulfonyl]-N-{[2-(propan-2-yloxy)phenyl]methyl}piperidine-4-carboxamide]
The IC50 of the first is lower: 12.9 µM for the first, > 20 µM for the second.

Going from CC(O)c1cccc(S(=O)(=O)N2CCC(C(=O)NCc3ccccc3F)CC2)c1 (centres unmarked) [Example 107, N-[(2-fluorophenyl)methyl]-1-[3-(1-hydroxyethyl)benzenesulfonyl]piperidine-4-carboxamide] to CCN(CC)C(C)c1cccc(S(=O)(=O)N2CCC(C(=O)NCc3ccccc3F)CC2)c1 (centres unmarked) [Example 113, 1-{3-[1-(diethylamino)ethyl]benzenesulfonyl}-N-[(2-fluorophenyl)methyl]piperidine-4-carboxamide], the IC50 rises from 13.2 µM to > 20 µM. The first is the more potent here.

COc1ccc(CNC(=O)C2CCN(S(=O)(=O)/C=C/c3ccccc3)CC2)c(F)c1 [Example 48, N-[(2-fluoro-4-methoxyphenyl)methyl]-1-[(E)-2-phenylethenesulfonyl]piperidine-4-carboxamide] and O=C(O)c1cccc(S(=O)(=O)N2CCC(C(=O)NCc3ccccc3F)CC2)c1 [Example 90, 3-[(4-{[(2-fluorophenyl)methyl]carbamoyl}piperidin-1-yl)sulfonyl]benzoic acid] cannot be ordered by IC50: > 20 µM for the first, > 20 µM for the second.

COC(=O)c1ccc(S(=O)(=O)N2CCC(C(=O)NCc3ccccc3F)CC2)cc1 [Example 89, methyl 4-[(4-{[(2-fluorophenyl)methyl]carbamoyl}piperidin-1-yl)sulfonyl]benzoate] and O=Cc1ccc(S(=O)(=O)N2CCC(C(=O)NCc3ccccc3F)CC2)cc1 [Example 94, N-[(2-fluorophenyl)methyl]-1-(4-formylbenzenesulfonyl)piperidine-4-carboxamide] cannot be ordered by IC50: > 20 µM for the first, > 20 µM for the second.

Compared with CN(C)CCOc1ccc(S(=O)(=O)N2CCC(C(=O)NCc3ccccc3F)CC2)cc1 [Example 102, 1-(4-[2-(dimethylamino)ethoxy]benzenesulfonyl)-N-[(2-fluorophenyl)methyl]piperidine-4-carboxamide], O=C(NCc1ccccn1)C1CCN(S(=O)(=O)c2ccccc2Cl)CC1 [Example 71, 1-(2-chlorobenzenesulfonyl)-N-[(pyridin-2-yl)methyl]pipendine-4-carboxamide] is lower in IC50: > 20 µM for the first, 14.4 µM for the second. The second is the more potent here.

In the case of O=C(NCc1ccccn1)C1CCN(S(=O)(=O)c2cccc(Cl)c2Cl)CC1 [Example 83, 1-(2,3-dichlorobenzenesulfonyl)-N-[(pyridin-2-yl)methyl]pipendine-4-carboxamide], the IC50 is reported as > 20 µM.

— patent US20200087258A1, “INHIBITOR OF CITRATE TRANSPORTER AND THEIR USE IN THERAPY” (Eternygen GmbH, priority 2017, published 2020)
